The numbers were not newly measured in US20240075184A1, “BIODEGRADABLE IMPLANTS WITH ANTICORROSIVE COATINGS” (University of Georgia Research Foundation, Inc., priority 2021, published 2024), which cites them from elsewhere.

Like-named read-outs stand apart in the source and are kept apart here.

For data set [1] the following is noted: 0.4 M in corrosion solution, Mg alloy AZ31.
For data set [2] the following is noted: 0.4 M in corrosion solution, high-purity Mg.

As for `O=C1C=C(O)C(=O)c2ccccc21` [Lawsone, 2-hydroxy-1,4-napthoquinone], the inhibition efficiency in data set [1] is 90%; in data set [2], 97%.
